# Results as given in US7087590B2, “19-norbufalin derivatives, their preparation and pharmaceutical compositions containing them” (Yissum Research Development Company of the Hebrew …, priority 2000, dated 2006).
# Read-outs that look alike come from different tables or passages of the source.
# Experiments:
# guinea pigs [1] = system: guinea pigs
# Source text: Intraventricular pressure was monitored using a Millar catheter. […] The upper traces depict ECG recording from a subcutaneous electrode (lead II). The middle traces show left ventricle pressure and the lower traces the dp/dt (change in pressure with time).
# K562 cells = test: Morphological changes / differentiation of K562 cells; assay type: cell-based
# Source text: Morphological changes of K562 cells, grown in appropriate media, was followed. Control cells after 2 days in culture. • FIG. 4b. Cells after 2 days in culture, the presence of 10^−8M ouabain. […] Cells after 2 days in culture, in the presence of 10^−8M compound 13b. […] Control cells after 6 days in culture. • FIG. 4e. Cells after 6 days in culture, in the presence of 10^−7M ouabain. […] Cells after 6 days in culture, in the presence of 10^−6M compound 13b.
# guinea pigs [2] = system: guinea pigs; remark: listed apart in the source
# Source text: Guinea pigs were maintained under anesthesia, the jugular artery was catheterized and blood pressure was monitored via a pressure transducer. Two ECG electrodes were placed under the skin and ECG was monitored following amplification.
# guinea pigs [3] = test: Toxicity on injection to guinea pigs; conditions: doses of up to 13 mg/kg
# Na^+,K^+-ATPase = test: Na+,K+-ATPase activity in rat brain microsomal fraction (colorimetric inorganic phosphate); assay type: biochemical
# Experimental: (§1) Total and Na^+ and K^+ dependent ATPase activities were measured in rat brain microsomal fraction. Enzyme activity was measured by the colorimetric determination of inorganic phosphate after the incubation of microsomes (30 μg protein/reaction) at 37° C. in a solution (final volume 500 μl) containing (final concentrations) Tris-HCl ([…], pH 7.4), NaCl (100 mM), KCl (10 mM), MgCl2 (4 mM) and ATP (2 mM, Tris, vanadium free). After 10 minutes preincubation, the ATP was added to initiate the reaction. Reactions were terminated by the addition of 100 μl 5% trichloroacetic acid and the precipitate was removed by centrifugation. Mg^++-ATPase activity was determined by the addition of ouabain (1 mM) to the assay mixture.
# guinea pig atrial muscle = test: Heart muscle contractility of isolated atrial strips
# Experimental: Experiments were conducted on frog atrial muscle or guinea pigs atrium. The animals were anaesthetized by MS22 (frogs) or pentobarbital (guinea pigs) (10 mg/kg). Their hearts were removed quickly into Krebs-Henseleit buffer. Atrial strips were mounted vertically in a chamber at 37° C. The muscle contractility was recorded by a transducer (FSG-01, Experimentia) connected to a computer Acodas software (DataQ instruments). […] The effect of compound 17b at 10 nM to frog atrial muscle. 2.
# Mg^++-ATPase = test: Mg++-ATPase activity in rat brain microsomal fraction (with 1 mM ouabain); assay type: biochemical
# Experimental: as §1
smiles,measurement,setting,value
"C[C@]12CC[C@H]3[C@@H](CC[C@@H]4C[C@@H](O)CC[C@@H]43)[C@@H]1[C@H](O)C[C@@H]2c1coc(CO)c1 (single isomer, unassigned) [13-3 (β isomer), 4-(3′β,15′βdihydroxy-5β-estran-17β-yl)furan-2-methyl alcohol]",Cardiac contractility in vivo (in words),guinea pigs [1]; 2.6 mg/kg injected to guinea pigs (FIG. 5A),induced an elevation in cardiac contractility
"C[C@@H]1O[C@@H](O[C@H]2C[C@@H](O)[C@]3(CO)[C@H]4[C@H](O)C[C@]5(C)[C@@H](C6=CC(=O)OC6)CC[C@]5(O)[C@@H]4CC[C@]3(O)C2)[C@H](O)[C@H](O)[C@H]1O [ouabain, reference compound]",K562 cell morphology / differentiation,"K562 cells; 10^−7M, 6 days in culture",Cell degradation and death is evident
same,K562 cell morphology / differentiation,"K562 cells; 10^−8M, 2 days in culture",does not show any effects
"C[C@]12CC[C@H]3[C@@H](CC[C@@H]4C[C@@H](O)CC[C@@H]43)[C@@H]1[C@H](O)C[C@@H]2c1coc(CO)c1 [Compound 13-3, 4-(3′β,15′βdihydroxy-5β-estran-17β-yl)furan-2-methyl alcohol]",Effect on digoxin-induced cardiac arrhythmia,"guinea pigs [2]; 2.5 mg/kg subcutaneously 30 minutes before 2.5 mg/kg digoxin, guinea pigs (FIG. 6C)",prevented induction of cardiac arrhythmia
same,Toxicity when injected to guinea pigs,guinea pigs [3],not toxic
same,LVEDP (left ventricle end diastolic pressure),"guinea pigs [1]; β isomer of 13-3, 2.6 mg/kg, 10 min after injection, control 5.52",51.70 mmHg
same,LVSP (left ventricle systolic pressure),"guinea pigs [1]; β isomer of 13-3, 2.6 mg/kg, 10 min after injection, control 10.83",67.88 mmHg
same,HR (heart rate),"guinea pigs [1]; β isomer of 13-3, 2.6 mg/kg, 10 min after injection, control 226.2",295.74 beat/min
same,dp/dt (change in pressure with time),"guinea pigs [1]; β isomer of 13-3, 2.6 mg/kg, 10 min after injection, control 2248.19",3319.11 mmHg/sec
same,LVEDP (left ventricle end diastolic pressure),"guinea pigs [1]; β isomer of 13-3, 2.6 mg/kg, 33 min post injection, control 5.52",51.98 mmHg
same,LVSP (left ventricle systolic pressure),"guinea pigs [1]; β isomer of 13-3, 2.6 mg/kg, 33 min post injection, control 10.83",124.61 mmHg
same,HR (heart rate),"guinea pigs [1]; β isomer of 13-3, 2.6 mg/kg, 33 min post injection, control 226.2",325 beat/min
same,dp/dt (change in pressure with time),"guinea pigs [1]; β isomer of 13-3, 2.6 mg/kg, 33 min post injection, control 2248.19",4215.86 mmHg/sec
same,LVEDP (left ventricle end diastolic pressure),"guinea pigs [1]; β isomer of 13-3, 2.6 mg/kg, 7 hr. post injection, control 5.52",37.57 mmHg
same,LVSP (left ventricle systolic pressure),"guinea pigs [1]; β isomer of 13-3, 2.6 mg/kg, 7 hr. post injection, control 10.83",107.45 mmHg
same,HR (heart rate),"guinea pigs [1]; β isomer of 13-3, 2.6 mg/kg, 7 hr. post injection, control 226.2",340 beat/min
same,dp/dt (change in pressure with time),"guinea pigs [1]; β isomer of 13-3, 2.6 mg/kg, 7 hr. post injection, control 2248.19",5146.12 mmHg/sec
"C[C@H]1O[C@@H](O[C@H]2[C@@H](O)C[C@H](O[C@H]3[C@@H](O)C[C@H](O[C@H]4CC[C@@]5(C)[C@H](CC[C@@H]6[C@@H]5C[C@@H](O)[C@]5(C)[C@@H](C7=CC(=O)OC7)CC[C@]65O)C4)O[C@@H]3C)O[C@@H]2C)C[C@H](O)[C@@H]1O [Digoxin, digoxin, reference compound]",Time to lethal cardiac arrhythmia,"guinea pigs [2]; 2.5 mg/kg subcutaneously, guinea pigs (FIG. 6B)",2.5 h
same,Cardiac contractility in vivo (in words),guinea pigs [1]; 2 mg/kg injected to guinea pigs,increase in contractilty
same,Bradycardia,"guinea pigs [1]; 2 mg/kg, guinea pigs (FIG. 5B)",induced bradycardia
same,Death after,"guinea pigs [1]; digoxin 2 mg/kg, guinea pig",40 min
same,LVEDP (left ventricle end diastolic pressure),"guinea pigs [1]; digoxin 2 mg/kg, control 17.3",49.78 mmHg
same,LVSP (left ventricle systolic pressure),"guinea pigs [1]; digoxin 2 mg/kg, control 75",232.4 mmHg
same,HR (heart rate),"guinea pigs [1]; digoxin 2 mg/kg, control 327",300 beat/min
same,dp/dt (change in pressure with time),"guinea pigs [1]; digoxin 2 mg/kg, control 1620.7",4248.4 mmHg/sec
"C[C@]12CC[C@H]3[C@@H](CC[C@@H]4CC(OCc5ccccc5)CC[C@@H]43)[C@@H]1[C@H](O)C[C@@H]2c1coc(C2OCCO2)c1 (stereo partly drawn) [Compound 13b, 4-(′3-benzyloxy-15′β-hydroxy-5β-estran-17′β-yl)furan-2-carbaldehyde ethylene acetal]","Na^+, K^+-ATPase activity (% of control)","Na^+,K^+-ATPase; 1 nM compound",100 % of control
same,"Na^+, K^+-ATPase activity (% of control)","Na^+,K^+-ATPase; 10 nM compound",64 % of control
same,"Na^+, K^+-ATPase activity (% of control)","Na^+,K^+-ATPase; 100 nM compound",38 % of control
same,"Na^+, K^+-ATPase activity (% of control)","Na^+,K^+-ATPase; 1000 nM compound",22 % of control
same,"Na^+, K^+-ATPase activity (% of control)","Na^+,K^+-ATPase; 10000 nM compound",2 % of control
same,Increase in the force of contraction,"guinea pig atrial muscle; guinea pig atrial muscle preparation, after 10 minutes (FIG. 3a)",about 30%
same,Heart muscle contractility (in words),"guinea pig atrial muscle; guinea pig muscle strip, 10 minutes after addition (FIG. 3a)",increase of heart muscle contractility is evident
same,Mg^++-ATPase activity (% of control),Mg^++-ATPase; 1 nM compound,100 % of control
same,Mg^++-ATPase activity (% of control),Mg^++-ATPase; 10 nM compound,86 % of control
same,Mg^++-ATPase activity (% of control),Mg^++-ATPase; 100 nM compound,88 % of control
same,Mg^++-ATPase activity (% of control),Mg^++-ATPase; 1000 nM compound,89 % of control
same,Mg^++-ATPase activity (% of control),Mg^++-ATPase; 10000 nM compound,86 % of control
same,Toxicity when injected to guinea pigs,guinea pigs [3],not toxic
same,K562 cell morphology / differentiation,"K562 cells; 10^−6M, 6 days in culture","Cell elongation, indicative of differentiation"
same,K562 cell morphology / differentiation,"K562 cells; 10^−8M, 2 days in culture",differentiation manifested in cells elongation
